Experimental data reported in PMC5799255, “Histone H5 is a potent Antimicrobial Agent and a template for novel Antimicrobial Peptides” (Scientific Reports, 2018).
Like-named read-outs stand apart in the source and are kept apart here. Marks after values point to notes of the source that are not given here. Ends that are not written are not given here.

What was measured:
[1] = tested on: Listeria monocytogenes (ATCC 19112); details: preliminary peptide screen, peptide purities 50% to 81.9%, tested 1-64 µg/mL, broth microdilution, mean ± SD, n = 3
Method: (§1) Antimicrobial activity of histone H5 against a variety of Gram-positive and Gram-negative planktonic bacteria was evaluated using a broth microdilution assay.
(§2) The antimicrobial activity of these peptides against Gram-positive and Gram-negative planktonic bacteria was evaluated using broth microdilution assays.
(§3) The bacterial strains tested in this study were Gram-positive bacteria (Bacillus cereus (ATCC 11778), methicillin-sensitive Staphylococcus aureus (ATCC 6538), methicillin-resistant Staphylococcus aureus (ATCC 29247), Listeria monocytogenes (ATCC 19112), Enterococcus faecalis (clinical isolate) and vancomycin-resistant Enterococcus (ATCC 51299)) and Gram-negative bacteria Escherichia coli K12 (ATCC 29425), Escherichia coli (O157:H7), Pseudomonas aeruginosa (ATCC 15442) and Salmonella typhimurium (ATCC 1535)). Bacterial colonies from glycerol stocks were plated on LB agar plates (BHI agar plates for L. monocytogenes) and incubated overnight at 37 °C. Single colonies from these plates were grown in 3 mL of LB broth (BHI broth for L. monocytogenes) overnight at 37 °C and shaken at 250 rpm. […] The bacterial suspension was pelleted at 3,000 × g, 4 °C for 10 minutes and washed with PBS (twice), and then adjusted to 10^5–10^6 CFUs/mL in PBS.
(§4) Supplementary Information
(§5) Broth microdilution assay
(§6) The protocol for this step of the project was based on established methods22. Histone H5 or the peptides were dissolved in sterile water, pH 7.4, serially two-fold diluted and aliquoted in a 1:1 (v/v) ratio with bacteria. Kanamycin or ampicillin served as a positive control for inhibition, and sterile water (pH 7.4) as a negative control for inhibition. The tubes were then incubated for 3 hours at 37°C an d shaken at 200 rpm. Next, 100 µL of each tube and 100µL of LB broth (BHI broth for L. monocytogenes) was plated in wells of a 96-well microplate. The microplate was incubated in the EON microplate reader overnight at 206 oscillations/min and at 37°C. During this period, the EON microplate spectrophotometer and Gen5 data analysis software (BioTek, Winooski, VT, USA) were used to monitor the growth of bacteria by measuring the optical density at 600 nm every 30 minutes for 18 hours. The lowest protein concentration without visible bacterial growth was designated as the minimum inhibitory concentration (MIC). Bacteria (10 µL) from the wells at MIC, MIC x 2 and MIC x 3 concentrations of H5 were plated on LB agar (BHI agar for L. monocytogenes) and incubated at 37°C for 18 hours. The lowest concentration of histone H5 without a single colony was designated as the minimum bactericidal concentration (MBC).

[2] = tested on: Pseudomonas aeruginosa (ATCC 15442); details: preliminary peptide screen, peptide purities 50% to 81.9%, tested 1-64 µg/mL, broth microdilution, mean ± SD, n = 3
Method: as §1, §2, §3, §4, §5, §6

[3] = tested on: E. coli; parameters: method as in PMID 22723861, PMID 16978580; details: cited from earlier work
[4] = tested on: S. aureus; parameters: method as in PMID 22723861, PMID 16978580; details: cited from earlier work
[5] = tested on: P. aeruginosa; parameters: method as in PMID 22723861, PMID 16978580; details: cited from earlier work
[6] = tested on: E. faecalis; parameters: method as in PMID 22723861, PMID 16978580; details: cited from earlier work
[7] = tested on: P. aeruginosa biofilms; details: cited from earlier work
Source text: (§7) L. monocytogenes and P. aeruginosa are major human pathogens that cause serious illnesses through foodborne and hospital-acquired infections, respectively. […] Moreover, an estimated 51,000 healthcare-associated infections leading to 440 deaths per year in the United States are caused by P. aeruginosa. Additionally, both pathogens have the ability to form biofilms, which enhances their persistence in unfavourable environ ...

[8] = tested on: L. monocytogenes biofilms; details: 6.8 µg/mL, 2 and 4 hours of treatment, cited from earlier work
Source text: as §7

## EMIAAAIRAEKSRGGSSRQS [H5(31–50)]
[1]
  MIC: inactive
[1]; listed as H5 (31–50)
  MIC: NI ^‡ (Non-inhibitory at the highest concentration tested (64 µg/mL))
[2]
  MIC: non-inhibitory
[2]; listed as H5 (31–50)
  MIC: NI ^‡ (Non-inhibitory at the highest concentration tested (64 µg/mL))

## EMIAAAIRAEKSRGGSSRQSIQKYIKSHYK [H5(31–60)]
[1]
  MIC: inactive
[1]; listed as H5 (31–60)
  MIC: NI ^‡ (Non-inhibitory at the highest concentration tested (64 µg/mL))
[2]
  MIC: non-inhibitory
[2]; listed as H5 (31–60)
  MIC: NI ^‡ (Non-inhibitory at the highest concentration tested (64 µg/mL))

## Human β-defensin-3: a human host defence antimicrobial peptide (GIINTLQKYYCRVRGGRCAVLSCLPKEEQIGKCSTRGRKCCRRKK; ends and bridges not checked; cysteine pairing not given here; UniProt P81534 23-67, looked up)
[3]
  MIC: 6 µg/mL
[4]
  MIC: 12 µg/mL
[5]
  MIC: 13 µg/mL
[6]
  MIC: > 512 µg/mL

## LL-37
[7]
  MBEC: 640 µg/mL
  MBEC/MIC ratio: 5–80

## LSIRRLLAAGVLKQTKGVGA [H5(71–90)]
[1]
  MIC: >64^† µg/mL
[2]
  MIC: 26.7 ± 14.1 µg/mL

## RVKASRRSASHPTYSEMIAAAIRAEKSRGG [H5(16–45)]
[1]
  MIC: inactive
[1]; listed as H5 (16–45)
  MIC: NI ^‡ (Non-inhibitory at the highest concentration tested (64 µg/mL))
[2]
  MIC: non-inhibitory
[2]; listed as H5 (16–45)
  MIC: NI ^‡ (Non-inhibitory at the highest concentration tested (64 µg/mL))

## VLKQTKGVGASGSFRLAKSD [H5(81–100)]
[1]
  MIC: inactive
[1]; listed as H5 (81–100)
  MIC: NI ^‡ (Non-inhibitory at the highest concentration tested (64 µg/mL))
[2]
  MIC: non-inhibitory
[2]; listed as H5 (81–100)
  MIC: NI ^‡ (Non-inhibitory at the highest concentration tested (64 µg/mL))

## magainin II
[7]
  MBEC: > 640 µg/mL

## melittin: CAMP tested against P. aeruginosa biofilms in the literature
[7]
  MBEC: > 640 µg/mL

## paenibacterin
[8]; biofilms developed statically at 30 °C
  disruption of established biofilms (in words): effective
[8]; stronger biofilms developed at 37 °C
  disruption of established biofilms (in words): not effective
